Source: the Kinase Knowledgebase extract (Sharma et al. 2016)

These compounds were tested against PIK3CG (human) (UniProt P48736) (assay: Assessment of PIK3CG Kinase Activity).
Chain of PIK3CG (human) (P48736 whole entry, looked up): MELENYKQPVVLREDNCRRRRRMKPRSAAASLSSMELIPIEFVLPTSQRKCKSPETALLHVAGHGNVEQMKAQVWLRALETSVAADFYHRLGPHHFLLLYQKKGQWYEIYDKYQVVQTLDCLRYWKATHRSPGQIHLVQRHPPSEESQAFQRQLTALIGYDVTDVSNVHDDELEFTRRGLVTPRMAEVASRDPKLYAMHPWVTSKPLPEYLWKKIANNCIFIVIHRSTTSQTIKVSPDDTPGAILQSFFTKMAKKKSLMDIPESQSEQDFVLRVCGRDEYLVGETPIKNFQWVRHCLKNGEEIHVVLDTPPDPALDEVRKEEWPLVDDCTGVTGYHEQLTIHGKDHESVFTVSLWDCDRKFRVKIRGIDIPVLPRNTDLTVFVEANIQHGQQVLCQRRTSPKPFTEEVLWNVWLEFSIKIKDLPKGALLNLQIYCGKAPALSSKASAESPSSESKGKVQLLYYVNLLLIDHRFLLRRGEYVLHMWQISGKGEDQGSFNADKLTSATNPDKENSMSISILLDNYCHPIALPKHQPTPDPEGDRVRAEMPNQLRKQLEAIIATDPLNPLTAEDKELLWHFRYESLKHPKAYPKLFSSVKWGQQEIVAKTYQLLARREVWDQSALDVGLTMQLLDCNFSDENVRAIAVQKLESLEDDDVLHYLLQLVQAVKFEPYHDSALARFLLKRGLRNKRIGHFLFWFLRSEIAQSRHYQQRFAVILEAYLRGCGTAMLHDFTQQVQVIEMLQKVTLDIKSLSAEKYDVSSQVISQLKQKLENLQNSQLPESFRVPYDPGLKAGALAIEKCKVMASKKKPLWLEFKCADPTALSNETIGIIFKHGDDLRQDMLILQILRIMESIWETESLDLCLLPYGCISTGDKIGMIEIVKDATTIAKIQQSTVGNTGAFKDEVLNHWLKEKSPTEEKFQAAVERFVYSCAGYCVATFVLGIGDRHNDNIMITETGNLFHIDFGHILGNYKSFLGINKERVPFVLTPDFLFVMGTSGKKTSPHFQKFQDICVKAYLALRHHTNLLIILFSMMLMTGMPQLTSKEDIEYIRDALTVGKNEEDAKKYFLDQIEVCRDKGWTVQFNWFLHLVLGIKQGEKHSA

**Q.** `Cc1cccc(OCCNC(=O)Nc2nc(C)c(C#Cc3ccncc3)s2)c1` was tested. Which Ki did it give?
**A.** < 50 nM

**Q.** `Cc1nc(NC(=O)NCCC(=O)NCC(F)(F)F)sc1C#Cc1ccncc1` was tested. Which Ki did it give?
**A.** < 50 nM

**Q.** `Cc1nc(NC(=O)NCC(F)(F)F)sc1C#Cc1ccncc1` was tested. Which Ki did it give?
**A.** 50 to 250 nM

**Q.** Which Ki does the source give for `CCCO[C@@H](C)CNC(=O)Nc1nc(C)c(C#Cc2ccncc2)s1` here?
**A.** < 50 nM

**Q.** With `CC(=O)Nc1nc(C)c(C#Cc2ccccc2C)s1` as the compound, how does the Ki read?
**A.** < 50 nM

**Q.** Which Ki does the source give for `CC(=O)Nc1nc(C)c(C#Cc2sc(NC(=O)NCCOCC3CC3)nc2C)s1` here?
**A.** 50 to 250 nM

**Q.** `COc1cc(C#Cc2sc(NC(=O)NCCOc3cccnc3)nc2C)cnc1OC` was tested. Which Ki did it give?
**A.** < 50 nM

**Q.** For `Cc1nc(NC(=O)NCCn2nnc3ccccc32)sc1C#Cc1ccncc1`, which Ki is on record?
**A.** 50 to 250 nM

**Q.** Which Ki does the source give for `COc1cc(C#Cc2sc(NC(=O)NCCOCC3CC3)nc2C)cnc1OC` here?
**A.** < 50 nM

**Q.** With `CCOC(=O)CCCC(=O)Nc1nc(C)c(C#Cc2ccncc2)s1` as the compound, how does the Ki read?
**A.** 50 to 250 nM

**Q.** For `COc1ccc(C#Cc2sc(NC(=O)NC[C@H](C)C(=O)NC(C)(C)C)nc2C)cn1`, which Ki is on record?
**A.** < 50 nM

**Q.** Which Ki does the source give for `Cc1nc(NC(=O)CCCC(=O)NC(C)(C)C)sc1C#Cc1ccncc1` here?
**A.** 50 to 250 nM

**Q.** For `Cc1nc(NC(=O)NCCOc2cccc(F)c2)sc1C#Cc1ccncc1`, which Ki is on record?
**A.** < 50 nM

**Q.** For `Cc1nc(NC(=O)NCCO)sc1C#Cc1ccncc1`, which Ki is on record?
**A.** < 50 nM

**Q.** Which Ki does the source give for `CCn1cc(CCNC(=O)Nc2nc(C)c(C#Cc3ccncc3)s2)cn1` here?
**A.** < 50 nM

**Q.** Which Ki does the source give for `Cc1cccc(NC(=O)CC(=O)Nc2nc(C)c(C#Cc3ccncc3)s2)c1` here?
**A.** 50 to 250 nM

**Q.** With `CCc1ccc(CNC(=O)Nc2nc(C)c(C#Cc3ccncc3)s2)nc1` as the compound, how does the Ki read?
**A.** < 50 nM

**Q.** Which Ki does the source give for `COc1cc(C#Cc2sc(NC(=O)NCCOc3ccccn3)nc2C)cnc1OC` here?
**A.** < 50 nM

**Q.** For `CCn1cnc(CCNC(=O)Nc2nc(C)c(C#Cc3ccncc3)s2)c1Cl`, which Ki is on record?
**A.** < 50 nM

**Q.** With `COc1cncc(C#Cc2sc(NC(C)=O)nc2C)c1` as the compound, how does the Ki read?
**A.** < 50 nM

**Q.** How did the Ki turn out when `Cc1nc(NC(=O)NCCOCC2CC2)sc1C#Cc1ccnn1C` was run?
**A.** 50 to 250 nM

**Q.** For `Cc1nc(NC(=O)NCCC(=O)c2ccccc2)sc1C#Cc1ccncc1`, which Ki is on record?
**A.** < 50 nM

**Q.** `CC(=O)Nc1ccc(C#Cc2sc(NC(=O)NCCOCC3CC3)nc2C)cn1` was tested. Which Ki did it give?
**A.** 50 to 250 nM

**Q.** For `Cc1nc(NC(=O)NCC[S+](C)[O-])sc1C#Cc1ccncc1` (stereo not drawn), which Ki is on record?
**A.** < 50 nM

**Q.** `CCc1ccc(CCNC(=O)Nc2nc(C)c(C#Cc3ccncc3)s2)nc1` was tested. Which Ki did it give?
**A.** < 50 nM

**Q.** With `Cc1nc(NC(=O)NCC#N)sc1C#Cc1ccncc1` as the compound, how does the Ki read?
**A.** < 50 nM

**Q.** `Cc1nc(NC(=O)NCCc2cn(CC(F)(F)F)cn2)sc1C#Cc1ccccc1` was tested. Which Ki did it give?
**A.** < 50 nM

**Q.** How did the Ki turn out when `CC(=O)Nc1nc(C)c(C#Cc2ccncc2)s1` was run?
**A.** < 50 nM

**Q.** `Cc1nc(NC(=O)NCCOc2ccccc2F)sc1C#Cc1ccncc1` was tested. Which Ki did it give?
**A.** < 50 nM

**Q.** `Cc1nc(NC(=O)NC[C@H](C)OCC2CC2)sc1C#Cc1cncc(F)c1` was tested. Which Ki did it give?
**A.** < 50 nM

**Q.** How did the Ki turn out when `COc1cc(C#Cc2sc(NC(=O)NC[C@H](C)OCC3CC3)nc2C)cnc1OC` was run?
**A.** < 50 nM

**Q.** `CC(=O)Nc1nc(C)c(C#Cc2ccc(N)cc2)s1` was tested. Which Ki did it give?
**A.** 50 to 250 nM

**Q.** For `Cc1ccc(OCCNC(=O)Nc2nc(C)c(C#Cc3ccncc3)s2)cc1`, which Ki is on record?
**A.** < 50 nM

**Q.** Which Ki does the source give for `COc1ccc(CNC(=O)Nc2nc(C)c(C#Cc3ccncc3)s2)cc1` here?
**A.** < 50 nM

**Q.** How did the Ki turn out when `COc1ccc(C#Cc2sc(NC(=O)NCCOCC3CC3)nc2C)cc1OC` was run?
**A.** < 50 nM

**Q.** How did the Ki turn out when `Cc1nc(NC(=O)NCCOCC2CC2)sc1C#Cc1ccc2nccn2c1` was run?
**A.** < 50 nM

**Q.** How did the Ki turn out when `CCn1c(C)nc(CCNC(=O)Nc2nc(C)c(C#Cc3ccncc3)s2)c1Cl` was run?
**A.** < 50 nM

**Q.** How did the Ki turn out when `Cc1nc(NC(=O)NCCC(=O)NCC(F)(F)F)sc1C#Cc1ccccc1` was run?
**A.** 50 to 250 nM

**Q.** With `Cc1nc(NC(=O)NCCc2ccccn2)sc1C#Cc1ccncc1` as the compound, how does the Ki read?
**A.** < 50 nM

**Q.** For `Cc1nc(NC(=O)NCCOCC2CC2)sc1C#Cc1cnc2ncccc2c1`, which Ki is on record?
**A.** < 50 nM

**Q.** Which Ki does the source give for `CCOC(=O)[C@H]1CCC[C@H]1NC(=O)Nc1nc(C)c(C#Cc2ccncc2)s1` here?
**A.** 50 to 250 nM

**Q.** How did the Ki turn out when `Cc1nc(NC(=O)NCCc2cn(C(C)C)cn2)sc1C#Cc1ccncc1` was run?
**A.** < 50 nM

**Q.** Which Ki does the source give for `Cc1nc(NC(=O)NCCC(=O)NC(C)C)sc1C#Cc1ccncc1` here?
**A.** < 50 nM

**Q.** How did the Ki turn out when `Cc1cc(O)nc(CCNC(=O)Nc2nc(C)c(C#Cc3ccncc3)s2)n1` was run?
**A.** 50 to 250 nM

**Q.** For `CC(=O)Nc1nc(C)c(C#Cc2cccnc2)s1`, which Ki is on record?
**A.** 50 to 250 nM

**Q.** How did the Ki turn out when `COc1ccccc1OCCNC(=O)Nc1nc(C)c(C#Cc2ccncc2)s1` was run?
**A.** < 50 nM

**Q.** Which Ki does the source give for `Cc1nc(NC(=O)NCCOCC2CC2)sc1C#Cc1cc(Cl)ncc1F` here?
**A.** < 50 nM

**Q.** `CCc1cnn(CCNC(=O)Nc2nc(C)c(C#Cc3ccncc3)s2)c1` was tested. Which Ki did it give?
**A.** < 50 nM

**Q.** With `CCOC(=O)CCNC(=O)Nc1nc(C)c(C#Cc2ccncc2)s1` as the compound, how does the Ki read?
**A.** < 50 nM

**Q.** How did the Ki turn out when `CCn1cnc(CCNC(=O)Nc2nc(C)c(C#Cc3ccncc3)s2)c1` was run?
**A.** < 50 nM

**Q.** How did the Ki turn out when `Cc1nc(NC(=O)NCCc2cn(CC(F)F)cn2)sc1C#Cc1ccccc1Cl` was run?
**A.** 50 to 250 nM

**Q.** `CCC(O)CNC(=O)Nc1nc(C)c(C#Cc2cncc(OC)c2)s1` (stereo not drawn) was tested. Which Ki did it give?
**A.** < 50 nM

**Q.** How did the Ki turn out when `Cc1nc(NC(=O)NCCOCC2CC2)sc1C#Cc1cccnc1Cl` was run?
**A.** < 50 nM

**Q.** With `Cc1nc(NC(=O)CCNC(=O)c2ccccn2)sc1C#Cc1cccnc1` as the compound, how does the Ki read?
**A.** < 50 nM

**Q.** Which Ki does the source give for `COc1cc(C#Cc2sc(NC(=O)NCCOCC3CC3)nc2C)cnc1Cl` here?
**A.** 50 to 250 nM

**Q.** How did the Ki turn out when `Cc1nc(NC(=O)NCCc2cccnc2)sc1C#Cc1ccncc1` was run?
**A.** < 50 nM

**Q.** For `Cc1nc(NC(=O)NC[C@H](C)O)sc1C#Cc1ccncc1`, which Ki is on record?
**A.** < 50 nM

**Q.** How did the Ki turn out when `Cc1nc(NC(=O)[C@@H]2CCC(=O)N2)sc1C#Cc1ccncc1` was run?
**A.** 50 to 250 nM

**Q.** For `Cc1nc(NC(=O)CCCC(=O)NCC(F)(F)F)sc1C#Cc1ccncc1`, which Ki is on record?
**A.** 50 to 250 nM

**Q.** `CC(=O)Nc1nc(C)c(C#Cc2cccc(F)c2)s1` was tested. Which Ki did it give?
**A.** 50 to 250 nM

**Q.** Which Ki does the source give for `Cc1nc(NC(=O)NCCn2cc(Cl)cn2)sc1C#Cc1ccncc1` here?
**A.** < 50 nM

**Q.** How did the Ki turn out when `Cc1nc(NC(=O)NCCC#N)sc1C#Cc1ccncc1` was run?
**A.** < 50 nM

**Q.** For `CCOC(=O)N1CCC(OC(=O)Nc2nc(C)c(C#Cc3ccncc3)s2)CC1`, which Ki is on record?
**A.** 50 to 250 nM
